Laboratory results published in patent US6613718B2, “Aryl ether derivatives and processes for their preparation and herbicidal and desiccant compositions containing them” (Ishihara Sangyo Kaisha, Ltd., priority 2001, dated 2003).

Assays:
Type in all cases: in vivo
Details in all cases: 14 days after application
[1] = test system: field corn (Zea mays L., var. Dekalb 535, CORN); experiment: Post-emerge greenhouse screening, crop safety / corn selectivity (phytotoxicity rating)
From the text: (§1) A standard greenhouse herbicide activity screening system was used to evaluate the herbicidal efficacy and crop safety of these test compounds. Seven broadleaf weed species including redroot pigweed (Amaranthus retroflexus, AMARE), velvetleaf (Abutilon theophrasti, ABUTH), sicklepod (Cassia obtusifolia, CASOB), ivyleaf morningglory (Ipomoea hederacea, IPOHE), lambsquarters (Chenopodium album, CHEAL), common ragweed (Ambrosia artemisiifolia L., AMBEL), and cocklebur (Xanthium strumarium, XANST) were used as test species. Four grass weed species including green foxtail (Setaria viridis, SETVI), barnyardgrass (Echinochloa crus-galli, ECHCG), johnsongrass (Sorghum halepense, SORHA), and large crabgrass (Digitaria sanguinalis, DIGSA) were also used. In addition, three crop species, field corn (Zea mays L., var. Dekalb 535, CORN), soybean (Glycine max L., var. Pella 86, SOY), and upland rice (Oryza sp., var.Tebonnet, RICE) were included.
(§2) All plants were grown in 10 cm square plastic pots which were filled with a sandy loam soil mix. For pre-emerge tests, seeds were planted one day prior to application of the test compounds. For post-emerge tests, seeds were planted 8-21 days prior to the test to allow emergence and good foliage development prior to application of the test substances. At the time of the post-emerge application, plants of all species were usually at the 2-3 leaf stage of development.
(§3) All test compounds were dissolved in acetone and applied to the test units in a volume of 187 1/ha. Test materials were applied at rates ranging from 15 g ai/ha to 1000 g ai/ha using a track sprayer equipped with a TJ8001E even flow flat fan spray nozzle. Plants were arranged on a shelf so that the top of the canopy (post-emerge) or top of the soil surface (pre-emerge) was 40-45 cm below the nozzle. Pressurized air was used to force the test solution through the nozzle as it was mechanically advanced (via electrically driven chain drive) over the top of all test plants/pots. This application simulates a typical commercial field herbicide application.
(§4) In the post-emerge test, a commercial non-ionic surfactant was also included (0.25% v/v) to enhance wetting of the leaf surfaces of target plants. Immediately after application, test units of the pre-emerge applications were watered at the soil surface to incorporate the test materials. Subsequently, these test units were bottom-watered. Post-emerge test units were always bottom-watered.
(§5) At 14 days after application of the test materials, phytotoxicity ratings were recorded. A rating scale of 0-100 was used as previously described in Research Methods in Weed Science, 2nd edition, B. Truelove, Ed., Southern Weed Science Society, Auburn University, Auburn, Ala., 1977. Briefly, “0” corresponds to no damage and “100” corresponds to complete death of all plants in the test unit. This scale was used both to determine efficacy against weed species and damage to crop species. Herbicide activity data for various compounds of this invention, which are shown by compound No. in Tables I-VI, are shown in Tables VIII-IX.

[2] = test system: barnyardgrass (Echinochloa crus-galli, ECHCG); experiment: Pre-emerge greenhouse herbicide activity screening, phytotoxicity rating
From the text: as §1, §2, §3, §4, §5

[3] = test system: johnsongrass (Sorghum halepense, SORHA); experiment: as above
From the text: as §1, §2, §3, §4, §5

[4] = test system: lambsquarters (Chenopodium album, CHEAL); experiment: as above
From the text: as §1, §2, §3, §4, §5

[5] = test system: sicklepod (Cassia obtusifolia, CASOB); experiment: as above
From the text: as §1, §2, §3, §4, §5

[6] = test system: redroot pigweed (Amaranthus retroflexus, AMARE); experiment: as above
From the text: as §1, §2, §3, §4, §5

[7] = test system: green foxtail (Setaria viridis, SETVI); experiment: as above
From the text: as §1, §2, §3, §4, §5

[8] = test system: common ragweed (Ambrosia artemisiifolia L., AMBEL); experiment: as above
From the text: as §1, §2, §3, §4, §5

[9] = test system: velvetleaf (Abutilon theophrasti, ABUTH); experiment: as above
From the text: as §1, §2, §3, §4, §5

[10] = test system: large crabgrass (Digitaria sanguinalis, DIGSA); experiment: as above
From the text: as §1, §2, §3, §4, §5

[11] = test system: ivyleaf morningglory (Ipomoea hederacea, IPOHE); experiment: as above
From the text: as §1, §2, §3, §4, §5

[12] = test system: soybean (Glycine max L., var. Pella 86, SOY); experiment: Pre-emerge greenhouse screening, crop safety (phytotoxicity rating)
From the text: as §1, §2, §3, §4, §5

[13] = test system: field corn (Zea mays L., var. Dekalb 535, CORN); experiment: as above
From the text: as §1, §2, §3, §4, §5

[14] = test system: upland rice (Oryza sp., var.Tebonnet, RICE); experiment: as above
From the text: as §1, §2, §3, §4, §5

[15] = test system: barnyardgrass (Echinochloa crus-galli, ECHCG); experiment: Post-emerge greenhouse herbicide activity screening, phytotoxicity rating
From the text: as §1, §2, §3, §4, §5

[16] = test system: johnsongrass (Sorghum halepense, SORHA); experiment: as above
From the text: as §1, §2, §3, §4, §5

[17] = test system: lambsquarters (Chenopodium album, CHEAL); experiment: as above
From the text: as §1, §2, §3, §4, §5

[18] = test system: sicklepod (Cassia obtusifolia, CASOB); experiment: as above
From the text: as §1, §2, §3, §4, §5

[19] = test system: redroot pigweed (Amaranthus retroflexus, AMARE); experiment: as above
From the text: as §1, §2, §3, §4, §5

[20] = test system: green foxtail (Setaria viridis, SETVI); experiment: as above
From the text: as §1, §2, §3, §4, §5

[21] = test system: common ragweed (Ambrosia artemisiifolia L., AMBEL); experiment: as above
From the text: as §1, §2, §3, §4, §5

[22] = test system: velvetleaf (Abutilon theophrasti, ABUTH); experiment: as above
From the text: as §1, §2, §3, §4, §5

[23] = test system: large crabgrass (Digitaria sanguinalis, DIGSA); experiment: as above
From the text: as §1, §2, §3, §4, §5

[24] = test system: ivyleaf morningglory (Ipomoea hederacea, IPOHE); experiment: as above
From the text: as §1, §2, §3, §4, §5

[25] = test system: soybean (Glycine max L., var. Pella 86, SOY); experiment: Post-emerge greenhouse screening, crop safety (phytotoxicity rating)
From the text: as §1, §2, §3, §4, §5

[26] = test system: upland rice (Oryza sp., var.Tebonnet, RICE); experiment: as above
From the text: as §1, §2, §3, §4, §5

Cn1c(C(F)(F)F)cc(=O)n(-c2cc(Oc3ccccc3)c(Cl)cc2F)c1=S [Compound 1-47]
CORN crop damage, phytotoxicity rating (0-100 scale) ([1]; 125 g ai/ha): 0 | CORN crop damage, phytotoxicity rating (0-100 scale) ([1]; 250 g ai/ha): 0 | ECHCG phytotoxicity rating (0-100 scale) ([2]; 125 g ai/ha): 80 | ECHCG phytotoxicity rating (0-100 scale) ([2]; 250 g ai/ha): 85 | SORHA phytotoxicity rating (0-100 scale) ([3]; 125 g ai/ha): 50 | SORHA phytotoxicity rating (0-100 scale) ([3]; 250 g ai/ha): 55 | CHEAL phytotoxicity rating (0-100 scale) ([4]; 125 g ai/ha): 100 | CHEAL phytotoxicity rating (0-100 scale) ([4]; 250 g ai/ha): 100 | CASOB phytotoxicity rating (0-100 scale) ([5]; 125 g ai/ha): 90 | CASOB phytotoxicity rating (0-100 scale) ([5]; 250 g ai/ha): 99 | AMARE phytotoxicity rating (0-100 scale) ([6]; 125 g ai/ha): 100 | AMARE phytotoxicity rating (0-100 scale) ([6]; 250 g ai/ha): 100 | SETVI phytotoxicity rating (0-100 scale) ([7]; 125 g ai/ha): 100 | SETVI phytotoxicity rating (0-100 scale) ([7]; 250 g ai/ha): 100 | AMBEL phytotoxicity rating (0-100 scale) ([8]; 125 g ai/ha): 95 | AMBEL phytotoxicity rating (0-100 scale) ([8]; 250 g ai/ha): 99 | ABUTH phytotoxicity rating (0-100 scale) ([9]; 125 g ai/ha): 100 | ABUTH phytotoxicity rating (0-100 scale) ([9]; 250 g ai/ha): 100 | DIGSA phytotoxicity rating (0-100 scale) ([10]; 125 g ai/ha): 95 | DIGSA phytotoxicity rating (0-100 scale) ([10]; 250 g ai/ha): 100 | IPOHE phytotoxicity rating (0-100 scale) ([11]; 125 g ai/ha): 95 | IPOHE phytotoxicity rating (0-100 scale) ([11]; 250 g ai/ha): 98 | SOY crop damage, phytotoxicity rating (0-100 scale) ([12]; 125 g ai/ha): 50 | SOY crop damage, phytotoxicity rating (0-100 scale) ([12]; 250 g ai/ha): 65 | CORN crop damage, phytotoxicity rating (0-100 scale) ([13]; 125 g ai/ha): 5 | CORN crop damage, phytotoxicity rating (0-100 scale) ([13]; 250 g ai/ha): 8 | RICE crop damage, phytotoxicity rating (0-100 scale) ([14]; 125 g ai/ha): 15 | RICE crop damage, phytotoxicity rating (0-100 scale) ([14]; 250 g ai/ha): 25 | ECHCG phytotoxicity rating (0-100 scale) ([15]; 125 g ai/ha): 60 | ECHCG phytotoxicity rating (0-100 scale) ([15]; 250 g ai/ha): 65 | SORHA phytotoxicity rating (0-100 scale) ([16]; 125 g ai/ha): 0 | SORHA phytotoxicity rating (0-100 scale) ([16]; 250 g ai/ha): 0 | CHEAL phytotoxicity rating (0-100 scale) ([17]; 125 g ai/ha): 99 | CHEAL phytotoxicity rating (0-100 scale) ([17]; 250 g ai/ha): 100 | CASOB phytotoxicity rating (0-100 scale) ([18]; 125 g ai/ha): 65 | CASOB phytotoxicity rating (0-100 scale) ([18]; 250 g ai/ha): 65 | AMARE phytotoxicity rating (0-100 scale) ([19]; 125 g ai/ha): 100 | AMARE phytotoxicity rating (0-100 scale) ([19]; 250 g ai/ha): 100 | SETVI phytotoxicity rating (0-100 scale) ([20]; 125 g ai/ha): 50 | SETVI phytotoxicity rating (0-100 scale) ([20]; 250 g ai/ha): 75 | AMBEL phytotoxicity rating (0-100 scale) ([21]; 125 g ai/ha): 70 | AMBEL phytotoxicity rating (0-100 scale) ([21]; 250 g ai/ha): 75 | ABUTH phytotoxicity rating (0-100 scale) ([22]; 125 g ai/ha): 100 | ABUTH phytotoxicity rating (0-100 scale) ([22]; 250 g ai/ha): 100 | DIGSA phytotoxicity rating (0-100 scale) ([23]; 125 g ai/ha): 10 | DIGSA phytotoxicity rating (0-100 scale) ([23]; 250 g ai/ha): 35 | IPOHE phytotoxicity rating (0-100 scale) ([24]; 125 g ai/ha): 75 | IPOHE phytotoxicity rating (0-100 scale) ([24]; 250 g ai/ha): 85 | SOY crop damage, phytotoxicity rating (0-100 scale) ([25]; 125 g ai/ha): 15 | SOY crop damage, phytotoxicity rating (0-100 scale) ([25]; 250 g ai/ha): 40 | RICE crop damage, phytotoxicity rating (0-100 scale) ([26]; 125 g ai/ha): 0 | RICE crop damage, phytotoxicity rating (0-100 scale) ([26]; 250 g ai/ha): 0
